Assay results taken from ChEMBL document CHEMBL3044984, “Synthesis of 2-(5, 7-Difluoro-3-indolyl)-propionic Acid (5, 7-F2-IPA) and 2-(5, 7-Difluoro-3-indolyl)isobutyric Acid (5, 7-F2-IIBA) and Their Respective Auxin and Antiauxin Activities” (2001).
Active and inactive are the calls of the source. The rule behind the calls is not given here.

Tests used:
[1] = system: Avena sativa; assay: Auxin activity in Avena sativa cv. Victory-1 assessed as coleoptile elongation; format: functional, organism-based
[2] = system: Avena sativa; assay: Auxin activity in Avena sativa cv. Victory-1 assessed as increase of auxin-induced growth at 10^-5 M; format: functional
[3] = system: Avena sativa; assay: Antiauxin activity in Avena sativa cv. Victory-1 assessed as auxin-induced growth inhibition at 10^-5 to 10^-4 M; format: functional, organism-based
[4] = system: Avena sativa; assay: Antiauxin activity in Avena sativa cv. Victory-1 assessed as growth inhibition at 1 x 10^-4 M; format: functional, organism-based
[5] = system: Avena sativa; assay: Auxin activity in Avena sativa cv. Victory-1 assessed as coleoptile elongation at 3 x 10^-6 M; format: functional, organism-based
[6] = system: Avena sativa; assay: Antiauxin activity in Avena sativa cv. Victory-1 assessed as growth inhibition; format: functional, organism-based
[7] = system: Avena sativa; assay: Auxin activity in Avena sativa cv. Victory-1 assessed as increase of auxin-induced growth at 5.6 x 10^-5 M; format: functional, organism-based
[8] = system: Avena sativa; assay: Antiauxin activity in Avena sativa cv. Victory-1 assessed as auxin-induced growth inhibition at 3 x 10^-5 M; format: functional, organism-based

Structure (SMILES) | Activity [1] | growth inhibition (GI) [4] | Activity [5] | growth inhibition (GI) [6] | also measured
CC(C)(C(=O)O)c1c[nH]c2c(Cl)cc(Cl)cc12 | inactive |  |  |  | 
CC(C)(C(=O)O)c1c[nH]c2c(F)cc(F)cc12 | Active | Active | Active |  | Activity [2]: 80%; growth inhibition (GI) [3]: Active
O=C(O)Cc1c[nH]c2c(F)cc(F)cc12 |  |  |  | Active | 
CC(C(=O)O)c1c[nH]c2c(F)cc(F)cc12 (centres undefined) | Active | Active | Active |  | 
CC(C)(C(=O)O)c1c[nH]c2ccccc12 |  |  |  | inactive | 
O=C(O)Cc1c[nH]c2ccccc12 | Active |  |  |  | Activity [7]: inactive; growth inhibition (GI) [8]: Active
